# From patent publication US20190002915A1, “COMPOSITIONS AND METHODS FOR REGULATABLE ANTIBODY EXPRESSION” (The Trustees of the University of Pennsylvania, priority 2015, published 2019)
# B1: 2011A antibody: immunoadhesin expressed from the Z12i construct in AAV8 (protein)
# chain: EVQLLESGPGLVKPSETLSLTCAVSGLSISSDFSWAWIRQTPGKALEYVGYIRGNTGDTYYNPSLKSRLTISKDTSKNQIYLNLSSVTAGDAAVYYCARDRVCDDDYGYYYTEVCFGLDSWGQGIVVTVSSGGGGSGGGGSGGGGSAELVMTQSPLSLSVAPGQTASISCRSSQSLDYANGNTYLSWFHQRPGQPPRRLIYQISNRDSGVPDRFSGSGAGTEFTLRISRMESDDVGIYYCGQGTTFPRTFGQGTKVEIKTCGGGSKPPTCPPCTSPELLGGPSVFLFPPKPKDTLMISRTPEVTCVVVDVSQEDPDVKFNWYVNGAEVHHAQTKPRETQYNSTYRVVSVLTVTHQDWLNGKEYTCKVSNKALPAPIQKTISKDKGQPREPQVYTLPPSREELTKNQVSLTCLVKGFYPSDIVVEWESSGQPENTYKTTPPVLDSDGSYFLYSKLTVDKSRWQQGNVFSCSVMHEALHNHYTQKSLSLSPGK
# Key:
# [1] = tested on: Z12i promoter ffLuc reporter in HEK293 cells; assay: ffLuc reporter induction under Z12i promoter in transfected HEK293 cells; type: cell-based; conditions: TF cis-plasmids plus Z12i-ffLuc reporter, rapamycin versus rapalog, all TF systems tested
# Description: Cis plasmid constructs having the following elements, from 5′ to 3′ were constructed: promoter, nuclear localization signal (NLS), FRAPL (lipid kinase homolog having rapamycin binding domain), p65 of human NF-κB (transcriptional activation domain), IRES, zinc finger (DNA binding domain), 2 or 3 copies of FK506 binding protein as shown below, and a poly A.
# These cis plasmids were tested for in HEK293 cells for the ability to induce expression of ffLuc reporter gene under the control of Z12i promoter, consisting of 12 ZFHD binding sites followed by minimal IL2 promoter. Briefly, HEK293 cells were transfected with cis-plasmids along with the reporter constructs. 24-72 hours post transfection, cells were treated with various concentrations of either rapamycin (sirolimus) or rapalog AP22594 as indicated in FIG. 5. Expression of ffLuc was assessed using dual luciferase detection kit from Promega according to manufacturer's instructions. […] Antibodies normally are secreted into supernatant buy the transfected cells. In this experiment, transfection was performed using lipofectamine according to the manufacturer's instructions, and induction was carried out the next day after transfection using indicated amounts of rapalog. At 72 hours post transfection, supernatants were harvested and expression of anti-SIV antibody was assessed using antigen specific ELISA or protein A ELISA. […]
# [2] = IM AAV8 Z12i-immunoadhesin plus TF vectors in RAG KO mice, AP22594 induction, protein A ELISA; type: in vivo; conditions: post AAV8 administration
# Description: RAG KO mice were purchased from Jackson labs. Z12i-2014A and TF plasmids were packaged into AAV8 vectors using triple transfection method. Vectors were titered using qPCR. […] First induction with AP22594 was carried out on day 13 after AAV8 administration. AP22594 was administered IP at a dose of 1 mg/kg. On day 21 post AAV8 administration, orbital bleeds were collected and the level of circulating 2011A antibody was measured by protein A ELISA. The data is presented on FIG. 8.
# nasal airways = assay: Intranasal AAV9 regulatable ffLuc expression in mice after rapamycin induction (IVIS imaging); type: in vivo, C57BL/6 mice
# Description: AAV2/9.Z12i.ffLuc and AAV2/9.CMV.Tf were used in this example. These vectors were prepared as described in S J Chen et al, Hu Gene Therapy, 24: 270-278 (August 2013). AAV2/9.Z12i.ffLuc contains:
# C57BL/6 mice (6 to 8 weeks of age) were purchased from Charles River Laboratories (Wilmington, Mass.) and kept under pathogen-free conditions at the Animal Facility of the Translational Research Laboratories. Mice were anesthetized using an intraperitoneal (IP) injection of ketamine/xylazine. For vector administrations, mice were inoculated intranasally (IN) with […] in the right and left nostril for a total dose of 10^11 genome copies (GC) in 25 μL. All animal procedures were approved by the Institutional Animal Care and Use Committees of the University of Pennsylvania.
# Topical (IN) application: mice were anaesthetized with ketamine/xylazine and 5 mins later 5 μL of rapamycin solution for a total dose of 10 mg/kg was delivered to the right and left nostril IN. Systemic (IP) application: mice were physically restrained and injected IP with 50 μL of a 1 mg/mL rapamycin solution.
# Mice were anaesthetized with ketamine/xylazine and 5 mins later 10 μL of 15 mg/ml D-luciferin (Caliper, USA) was delivered to the right and left nostril IN. Five mins later mice were imaged using the IVIS® Xenogen imaging system [Perkin-Elmer]. Quantitation of signal was calculated using the Living Image® 3.0 Software.
# The level of gene expression achieved in the nasal airways following rapamycin induction was examined. Briefly, C57B1/6 mice (n=5/group) were dosed with 10^11 GC of both AAV2/9.Z12i.ffLuc and AAV2/9.CMV.Tf in a volume of 25 μL (12.5 μL per nostril). As negative controls, groups of mice were dosed with a) AAV2/9.Z12i.ffLuc alone, b) AAV2/9.CMV.Tf alone and c) PBS mice. As a positive control for the maximal expression of ffLuc, mice (n=5) were injected with AAV2/9.CMV.ffluc. To maximize the safety of the inducible vector system we opted to restrict expression to the nasal epithelium by delivering rapamycin topically (directly to the nose) or systemically (IP).
# NHP eyes = assay: Subretinal AAV8 regulatable antibody expression in NHP eyes (ELISA); type: in vivo, Macaca mulatta (rhesus monkeys); conditions: rapamycin IV
# Description: For this experiment a 3 year old male Macaca mulatta (rhesus monkeys) was purchased from Covance Research Products, Inc.
# For subretinal (SR) vector injections, a needle was inserted through a sclerotomy 2 mm posterior to the limbus at the 2 or 10 o'clock position. It was then advanced through the vitreous to penetrate the retina in the posterior pole. Under microscopic control, up to 100 μL of anterior chamber fluid was removed and 150 μL of viral vector solution diluted in phosphate buffered saline (PBS) was injected into the subretinal space, thereby raising a dome-shaped retinal detachment (bleb). The detachment covered a small fraction (approximately ⅛th) of the area of the retina in the macula. The NHP received AAV8 vectors injected subretinally into the left (OS) and right (OD) eyes. The two vectors that were injected were: AAV2/8.CMV.TF1Nc (alternate name for AAV2/8.CMV.TF) and AAV2/8.Z12i.AbH.FF2A.AbL.BGH. The vectors were mixed at 1:1 ratio at 10^11 GC and delivered SR in a total volume of 150 μL.
# Macaques were induced at various times following the SR vector injection. Rapamycin (2 mg/kg) was delivered IV in a solution of 1.2% Tween 80, 27.1% Polyethylene Glycol, 71.7% Nuclease Free Water. At designated times post vector delivery, a tap was performed on the OD eye (baseline) and the NHP then injected IV with 2 mg/kg rapamycin. […]
# [3] = stated as consistent with the time frame of decline; cited from earlier work
# [4] = three separate IN rapamycin inductions over three months
molecule,measurement,setting,value
"COC1CC2CCC(C)C(O)(O2)C(=O)C(=O)N2CCCCC2C(=O)OC(C(C)CC2CCC(O)C(OC)C2)CC(=O)C(C)C=C(C)C(O)C(OC)C(=O)C(C)CC(C)C=CC=CC=C1C (stereo not drawn) [AP22594, 28-epi-rapamycin]",induction of transgene (ffLuc) expression,[1],comparable levels of induction of transgene expression
same,day induced expression returned to barely detectable,[2],49 days
same,day induced expression started to decline,[2],35 days
same,day of peak induced expression,[2]; data not shown,28 days
CO[C@H]1C[C@@H]2CC[C@@H](C)[C@@](O)(O2)C(=O)C(=O)N2CCCC[C@H]2C(=O)O[C@H]([C@H](C)C[C@@H]2CC[C@@H](O)[C@H](OC)C2)CC(=O)[C@H](C)/C=C(\C)[C@@H](O)[C@@H](OC)C(=O)[C@H](C)C[C@H](C)/C=C/C=C/C=C/1C [rapamycin],time for ffLuc expression to reach background levels,nasal airways; IN or IP rapamycin induction,≤ 7 days
same,time until which ffLuc expression remained stable,nasal airways; IN or IP rapamycin induction,48 h
same,time to maximal ffLuc expression after induction,"nasal airways; IN or IP rapamycin induction, AAV2/9.Z12i.ffLuc plus AAV2/9.CMV.Tf IN",≤ 24 h
same,signs of behavioral distress,nasal airways; rapamycin delivered to the nose or systemically,did not exhibit any signs of behavioral distress
same,time at which expression began to decline,nasal airways; [4],72 h
same,time to maximal induction,nasal airways; [4],≤ 24 h
same,time to which induction was stable,nasal airways; [4],48 h
same,time to wane to background undetectable levels,NHP eyes,≤ 3 months
same,peak of antibody expression post induction,NHP eyes; several inductions over 4 years,14 days
B1,antibody half-life,[3],1-2 weeks
